Reference: US7696240B2, “Fused pyrrole derivatives” (Hoffmann-La Roche Inc., priority 2005, dated 2010)

target: T1, Chymase purified form human skin mast cells (Homo sapiens, UniProt P23946); assay: chymase peptide substrate (AAPF-AMC) fluorescence assay; assay type: biochemical; conditions: 0.02 mM AAPF-substrate, 0.1 nM Chymase, pH 7.4, room temperature, 30 min pre-incubation
T1 construct: Chymase purified form human skin mast cells was obtained from Calbiochem; purchased Calbiochem (Merck Biosciences, San Diego, Calif., USA); host or cells: human skin mast cells (natural source)
T1 sequence (P23946 22-247): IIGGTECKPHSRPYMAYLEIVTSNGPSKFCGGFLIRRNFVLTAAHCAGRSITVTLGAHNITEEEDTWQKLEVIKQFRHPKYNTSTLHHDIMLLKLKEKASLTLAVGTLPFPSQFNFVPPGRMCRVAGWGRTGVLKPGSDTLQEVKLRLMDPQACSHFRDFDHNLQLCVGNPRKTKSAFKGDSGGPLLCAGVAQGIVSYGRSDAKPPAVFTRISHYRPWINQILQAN
Protocol: The peptide was synthesized with a purity of 95% from Bachem, Bubendorf, Switzerland). Chymase purified form human skin mast cells was obtained from Calbiochem (Merck Biosciences, San Diego, Calif., USA). The assay buffer was 0.15 M NaCl, 0.05M, Tris HCl, 0.05% CHAPS (3-[(3-Cholamidopropyl)-dimethylammonio]-1-propane sulphonate), 0.1 mg/ml Heparin (Heparin sodium, Sigma, porcine intestinal mucosa), 0.02 mM AAPF-substrate, 0.1 nM Chymase at pH 7.4. The assay was performed in 96-well plates (Packard Optiplate), with a 0.05 ml volume at room temperature. Chymase activity was indicated by the initial rate of increase in fluorescence at 340/440 nm (excitation/emission) from free 7-amino-4-methylcoumarin released from the substrate. Inhibition of the activity by inhibitory compounds was read after 30 min pre-incubation with the chymase at room temperature in assay buffer without AAPF-substrate. The assay was then started by addition of the indicated concentration of AAPF-substrate.

In order of rising IC50:
1. COC(=O)N(C)Cc1c(C(=O)O)n(Cc2cccc3ccc(F)cc23)c2ccccc12 [Example 106, 1-(7-Fluoro-naphthalen-1-ylmethyl)-3-[(methoxycarbonyl-methyl-amino)-methyl]-1H-indole-2-carboxylic acid]  0.2 nM
2. CS(=O)(=O)NCc1c(C(=O)O)n(Cc2cccc3ccc(F)cc23)c2ccccc12 [Example 105, 1-(7-Fluoro-naphthalen-1-ylmethyl)-3-(methanesulfonylamino-methyl)-1H-indole-2-carboxylic acid]  0.8 nM
3. COC(=O)N(C)Cc1c(C(=O)O)n(Cc2csc3ccc(F)cc23)c2ccccc12 [Example 117, 1-(5-Fluoro-benzo[b]thiophen-3-ylmethyl)-3-[(methoxycarbonyl-methyl-amino)-methyl]-1H-indole-2-carboxylic acid]  1 nM
4. O=C(O)c1cc2ccccc2n1Cc1cccc2ccc(F)cc12 [Example 49, 1-(7-Fluoro-naphthalen-1-ylmethyl)-1H-indole-2-carboxylic acid]  17 nM
5. O=C(O)c1cc2ccccc2n1Cc1csc2ccc(F)cc12 [Example 55, 1-(5-Fluoro-benzo[b]thiophen-3-ylmethyl)-1H-indole-2-carboxylic acid]  30 nM
6. O=C(O)Cc1c(C(=O)O)n(Cc2cccc3ccccc23)c2ccccc12 [Example 5, 3-Carboxymethyl-1-naphthalen-1-ylmethyl-1H-indole-2-carboxylic acid]  37 nM
7. Cc1ccc(C(=O)NCc2c(C(=O)O)n(Cc3cccc4ccccc34)c3ccccc23)cc1 [Example 10, 3-[(4-Methyl-benzoylamino)-methyl]-1-naphthalen-1-ylmethyl-1H-indole-2-carboxylic acid]  38 nM
